This is an account of results in ChEMBL document CHEMBL1909046, “DrugMatrix in vitro pharmacology data”.

pIC50, pKi: −log10 of the molar value.

Experiment [1] addresses T1, Alpha-2A adrenergic receptor (Homo sapiens, UniProt P08913).
T1 sequence (P08913 whole entry): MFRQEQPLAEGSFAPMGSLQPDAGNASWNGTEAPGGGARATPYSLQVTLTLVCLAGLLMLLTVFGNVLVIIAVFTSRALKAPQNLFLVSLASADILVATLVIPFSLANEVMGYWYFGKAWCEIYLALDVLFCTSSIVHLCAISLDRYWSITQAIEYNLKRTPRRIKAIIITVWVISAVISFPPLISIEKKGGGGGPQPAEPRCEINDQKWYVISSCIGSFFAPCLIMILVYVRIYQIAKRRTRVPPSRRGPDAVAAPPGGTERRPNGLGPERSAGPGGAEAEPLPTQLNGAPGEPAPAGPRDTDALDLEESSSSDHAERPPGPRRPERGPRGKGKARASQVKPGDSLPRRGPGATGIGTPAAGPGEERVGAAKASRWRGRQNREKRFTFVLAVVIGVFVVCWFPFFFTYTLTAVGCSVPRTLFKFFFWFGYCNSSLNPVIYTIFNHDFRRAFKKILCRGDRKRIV
It is filed as cell membranes, Sf9, Membrane. The settings on record: for IC50: sf9.

Experiment [2] concerns the target T2, Type-2 angiotensin II receptor (Homo sapiens, UniProt P50052). Note: in other assays of this panel Not Active means under 50% inhibition at 10 µM.
T2 sequence (P50052 whole entry): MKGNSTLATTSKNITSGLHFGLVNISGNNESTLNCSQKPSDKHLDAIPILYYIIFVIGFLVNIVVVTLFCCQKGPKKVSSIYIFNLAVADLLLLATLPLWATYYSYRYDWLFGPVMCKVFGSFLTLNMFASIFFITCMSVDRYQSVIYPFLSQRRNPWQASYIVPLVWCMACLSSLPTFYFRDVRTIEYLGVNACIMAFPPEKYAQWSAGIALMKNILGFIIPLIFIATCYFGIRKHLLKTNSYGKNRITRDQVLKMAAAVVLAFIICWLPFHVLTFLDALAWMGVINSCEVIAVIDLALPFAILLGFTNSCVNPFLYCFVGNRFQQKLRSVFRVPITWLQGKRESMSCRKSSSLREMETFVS
The experiment is described as follows: biochemical. In kind it is cell-based, CHO-K1. Particulars: cho-k1.

The nature of experiment [3]: DRUGMATRIX: Atrial Natriuretic Factor (ANF) radioligand binding (ligand: [125I] ANF (rat)). In kind it is cell membranes, Cavia porcellus, Dunkin-Hartley, Adrenal gland, Membrane. Particulars: Not Active = under 50% inhibition at 10 µM.
Experiment [4] concerns the target Vascular endothelial growth factor receptor 1 (Homo sapiens, UniProt P17948). In kind it is cell-based. Particulars: huvec. Note: in other assays of this panel Not Active means under 50% inhibition at 10 µM.
The target in another experiment is Vasopressin V1a receptor (Homo sapiens, UniProt P37288). In kind it is cell membranes, Membrane. The settings on record: hek293. Note: in other assays of this panel Not Active means under 50% inhibition at 10 µM.
Experiment [5] can be described thus: DRUGMATRIX: Glutamate, Kainate radioligand binding (ligand: [3H] Kainic acid). It is filed as cell membranes, Rattus norvegicus, Wistar, Brain, Membrane. Particulars: Not Active = under 50% inhibition at 10 µM.
For experiment [6], the target named is T3, Nitric oxide synthase, inducible (Mus musculus, UniProt P29477).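 Note: inhibition of iNOS enzyme activity measured with L-arginine as substrate; in other assays of this panel Not Active means under 50% inhibition at 10 µM.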
T3 sequence (P29477 whole entry): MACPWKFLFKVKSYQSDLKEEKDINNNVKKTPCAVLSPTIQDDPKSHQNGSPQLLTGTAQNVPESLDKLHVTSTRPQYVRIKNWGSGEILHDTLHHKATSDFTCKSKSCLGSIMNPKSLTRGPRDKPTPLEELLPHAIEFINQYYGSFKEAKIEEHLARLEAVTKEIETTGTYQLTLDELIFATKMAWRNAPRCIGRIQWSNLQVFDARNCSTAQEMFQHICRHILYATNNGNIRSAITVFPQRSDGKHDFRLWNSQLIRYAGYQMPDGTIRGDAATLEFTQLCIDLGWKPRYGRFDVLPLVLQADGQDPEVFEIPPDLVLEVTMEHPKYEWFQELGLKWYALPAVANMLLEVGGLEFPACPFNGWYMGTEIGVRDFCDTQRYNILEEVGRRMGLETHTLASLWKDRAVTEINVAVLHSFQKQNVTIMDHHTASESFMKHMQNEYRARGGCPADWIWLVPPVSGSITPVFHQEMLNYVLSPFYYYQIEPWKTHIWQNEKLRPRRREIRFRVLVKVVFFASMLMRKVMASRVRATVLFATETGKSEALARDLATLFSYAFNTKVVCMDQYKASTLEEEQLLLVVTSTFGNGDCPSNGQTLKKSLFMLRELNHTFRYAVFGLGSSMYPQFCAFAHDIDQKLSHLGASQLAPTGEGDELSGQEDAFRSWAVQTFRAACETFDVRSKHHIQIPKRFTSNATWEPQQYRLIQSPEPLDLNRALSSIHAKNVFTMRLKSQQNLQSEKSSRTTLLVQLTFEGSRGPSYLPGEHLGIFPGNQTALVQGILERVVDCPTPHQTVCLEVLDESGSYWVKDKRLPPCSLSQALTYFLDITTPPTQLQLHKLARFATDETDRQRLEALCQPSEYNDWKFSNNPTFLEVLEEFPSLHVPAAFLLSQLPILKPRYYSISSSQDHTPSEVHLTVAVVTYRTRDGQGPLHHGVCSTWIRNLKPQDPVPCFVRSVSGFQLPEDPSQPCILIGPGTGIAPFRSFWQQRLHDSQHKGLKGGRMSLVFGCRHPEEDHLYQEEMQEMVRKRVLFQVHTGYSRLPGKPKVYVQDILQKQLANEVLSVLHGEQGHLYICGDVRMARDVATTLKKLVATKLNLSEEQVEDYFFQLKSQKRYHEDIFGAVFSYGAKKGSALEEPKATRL
Further details: species or system Escherichia coli.

Experiment [7] is described as follows: DRUGMATRIX: Phorbol Ester radioligand binding (ligand: [3H] PDBu). It is filed as cell membranes, Mus musculus, ICR, Brain, Membrane. Particulars: Not Active = under 50% inhibition at 10 µM.

Sequence of Vasopressin V1a receptor (P37288 whole entry): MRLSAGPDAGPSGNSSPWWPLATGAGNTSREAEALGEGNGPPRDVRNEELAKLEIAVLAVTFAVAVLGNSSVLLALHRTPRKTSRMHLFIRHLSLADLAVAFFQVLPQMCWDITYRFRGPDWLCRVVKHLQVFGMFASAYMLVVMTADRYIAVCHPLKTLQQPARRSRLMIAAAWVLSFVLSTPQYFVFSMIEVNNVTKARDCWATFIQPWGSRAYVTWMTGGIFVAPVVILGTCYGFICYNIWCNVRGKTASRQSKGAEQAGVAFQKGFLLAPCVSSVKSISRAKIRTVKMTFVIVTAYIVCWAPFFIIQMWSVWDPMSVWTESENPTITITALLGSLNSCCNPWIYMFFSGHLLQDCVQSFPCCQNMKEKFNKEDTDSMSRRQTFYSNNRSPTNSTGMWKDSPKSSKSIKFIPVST
Sequence of Vascular endothelial growth factor receptor 1 (P17948 whole entry): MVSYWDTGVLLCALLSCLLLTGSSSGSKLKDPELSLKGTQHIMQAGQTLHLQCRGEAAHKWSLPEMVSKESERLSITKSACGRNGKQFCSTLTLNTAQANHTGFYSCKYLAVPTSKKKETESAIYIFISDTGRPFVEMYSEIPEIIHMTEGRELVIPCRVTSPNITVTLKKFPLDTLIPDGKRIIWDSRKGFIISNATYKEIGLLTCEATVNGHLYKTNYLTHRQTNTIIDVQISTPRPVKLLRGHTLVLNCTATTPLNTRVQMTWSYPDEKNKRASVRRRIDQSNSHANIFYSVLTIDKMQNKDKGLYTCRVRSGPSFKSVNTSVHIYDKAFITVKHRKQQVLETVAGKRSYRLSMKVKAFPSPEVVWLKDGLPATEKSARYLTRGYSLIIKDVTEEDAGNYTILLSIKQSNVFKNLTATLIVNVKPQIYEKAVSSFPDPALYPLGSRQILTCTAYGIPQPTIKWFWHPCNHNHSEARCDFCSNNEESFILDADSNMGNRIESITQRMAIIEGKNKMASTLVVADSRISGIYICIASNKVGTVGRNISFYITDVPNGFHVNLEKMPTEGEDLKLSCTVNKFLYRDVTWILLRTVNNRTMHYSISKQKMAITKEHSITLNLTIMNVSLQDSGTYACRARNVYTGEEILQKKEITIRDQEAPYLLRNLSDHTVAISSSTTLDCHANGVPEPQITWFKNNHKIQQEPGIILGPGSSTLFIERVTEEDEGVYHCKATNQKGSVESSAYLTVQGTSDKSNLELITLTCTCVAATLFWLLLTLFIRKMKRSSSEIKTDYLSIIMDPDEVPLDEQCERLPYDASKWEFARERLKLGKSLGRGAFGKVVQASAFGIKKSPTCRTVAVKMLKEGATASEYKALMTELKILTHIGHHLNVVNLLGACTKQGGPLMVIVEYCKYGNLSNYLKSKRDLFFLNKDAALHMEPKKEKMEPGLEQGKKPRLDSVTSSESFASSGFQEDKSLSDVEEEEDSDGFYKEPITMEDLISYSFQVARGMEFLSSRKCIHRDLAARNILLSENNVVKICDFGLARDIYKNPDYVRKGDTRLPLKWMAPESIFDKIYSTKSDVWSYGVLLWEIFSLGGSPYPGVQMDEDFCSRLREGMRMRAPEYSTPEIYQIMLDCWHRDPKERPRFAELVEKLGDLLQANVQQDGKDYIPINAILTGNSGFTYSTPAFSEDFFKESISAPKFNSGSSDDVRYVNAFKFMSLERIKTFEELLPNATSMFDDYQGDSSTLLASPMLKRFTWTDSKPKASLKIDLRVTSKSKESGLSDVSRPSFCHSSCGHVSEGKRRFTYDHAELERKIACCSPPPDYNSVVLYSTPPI

What is called pIC50 is −log10 of the IC50, conventionally taken in molar units. A word on the pKi: it is the Ki on a negative log10 scale, so that one unit is a factor of ten. For the compound `CC(C)C[C@H]1C(=O)N2CCC[C@H]2[C@]2(O)O[C@](NC(=O)[C@@H]3C=C4c5cccc6[nH]cc(c56)C[C@H]4N(C)C3)(C(C)C)C(=O)N12` [ERGOCRYPTINE], in experiment [1] (read-out: IC50), the pIC50 was 8.10. Moreover, in experiment [1] (read-out: Ki), the pKi is 8.53. The IC50 entry (in experiment [2]; in experiment [3]; in experiment [4]; against Vasopressin V1a receptor; in experiment [5]; in experiment [6]) was “Not Active” each time. Further, in experiment [7], the IC50 result was “Not Active”. The Ki entry in experiment [3], in experiment [5] and in experiment [7] was “Not Active” throughout.

Consider `C[C@]12CC[C@@H]3c4ccc(O)cc4CC[C@H]3[C@@H]1C[C@@H](O)[C@@H]2O` [ESTRIOL], for which the IC50 result (in experiment [1]; in experiment [2]; in experiment [3]; in experiment [4]; at Vasopressin V1a receptor; in experiment [5]) was “Not Active” throughout. Also, the IC50 entry in experiment [6] and in experiment [7] was “Not Active” each time. Further, the Ki entry in experiment [3], in experiment [5] and in experiment [7] was “Not Active” in each case.

Regarding `C#C[C@]1(O)CC[C@H]2[C@@H]3CCC4=CC(=O)CC[C@]4(C)[C@H]3CC[C@@]21C` [ETHISTERONE], the IC50 result (in experiment [1]; in experiment [2]; in experiment [3]; in experiment [4]; on Vasopressin V1a receptor; in experiment [5]) was “Not Active” in each case. Also, the IC50 entry in experiment [6] and in experiment [7] was “Not Active” each time. The Ki entry in experiment [3], in experiment [5] and in experiment [7] was “Not Active” in each case.

For the compound `CC(O)(P(=O)(O)O)P(=O)(O)O` [ETIDRONIC ACID], the IC50 result (in experiment [1]; in experiment [2]; in experiment [3]; in experiment [4]; on Vasopressin V1a receptor; in experiment [5]) was “Not Active” each time. For the same compound, the IC50 result in experiment [6] and in experiment [7] was “Not Active” throughout. The Ki result in experiment [3], in experiment [5] and in experiment [7] was “Not Active” throughout.

Consider `CC(C)(C(=O)O)c1ccc(C(O)CCCN2CCC(C(O)(c3ccccc3)c3ccccc3)CC2)cc1` (stereo not drawn) [FEXOFENADINE], for which the IC50 result (in experiment [1]; in experiment [2]; in experiment [3]; in experiment [4]; against Vasopressin V1a receptor; in experiment [5]) was “Not Active” each time. Further, the IC50 entry in experiment [6] and in experiment [7] was “Not Active” in each case. The Ki entry in experiment [3], in experiment [5] and in experiment [7] was “Not Active” each time.

In the case of `CN1CCN(c2c(F)cc3c(=O)c(C(=O)O)cn(CCF)c3c2F)CC1` [FLEROXACIN], the IC50 result (in experiment [1]; in experiment [2]; in experiment [3]; in experiment [4]; against Vasopressin V1a receptor; in experiment [5]) was “Not Active” in each case. Moreover, the IC50 entry in experiment [6] and in experiment [7] was “Not Active” in each case. The Ki entry in experiment [3], in experiment [5] and in experiment [7] was “Not Active” throughout.

Turning to `O=c1[nH]c(=O)n([C@H]2C[C@H](O)[C@@H](CO)O2)cc1F` [FLOXURIDINE], the IC50 entry (in experiment [1]; in experiment [2]; in experiment [3]; in experiment [4]; against Vasopressin V1a receptor; in experiment [5]) was “Not Active” each time. Also, the IC50 entry in experiment [6] and in experiment [7] was “Not Active” each time. Further, the Ki result in experiment [3], in experiment [5] and in experiment [7] was “Not Active” in each case.

Consider `COC(=O)Nc1nc2cc(C(=O)c3ccc(F)cc3)ccc2[nH]1` [FLUBENDAZOLE], for which the IC50 entry (in experiment [1]; in experiment [2]; in experiment [3]; in experiment [4]; against Vasopressin V1a receptor; in experiment [5]) was “Not Active” throughout. In addition, the IC50 entry in experiment [6] and in experiment [7] was “Not Active” each time. For the same compound, the Ki entry in experiment [3], in experiment [5] and in experiment [7] was “Not Active” throughout.

In the case of `CC(=O)OCC(=O)[C@@]1(O)CC[C@H]2[C@@H]3CCC4=CC(=O)CC[C@]4(C)[C@@]3(F)[C@@H](O)C[C@@]21C` [FLUDROCORTISONE ACETATE], the IC50 entry (in experiment [1]; in experiment [2]; in experiment [3]; in experiment [4]; on Vasopressin V1a receptor; in experiment [5]) was “Not Active” each time. Besides, the IC50 entry in experiment [6] and in experiment [7] was “Not Active” in each case. Moreover, the Ki result in experiment [3], in experiment [5] and in experiment [7] was “Not Active” throughout.

`CCOC(=O)c1ncn2c1CN(C)C(=O)c1cc(F)ccc1-2` [FLUMAZENIL]: the IC50 result (in experiment [1]; in experiment [2]; in experiment [3]; in experiment [4]; against Vasopressin V1a receptor; in experiment [5]) was “Not Active” in each case. Moreover, the IC50 entry in experiment [6] and in experiment [7] was “Not Active” in each case. Also, the Ki result in experiment [3], in experiment [5] and in experiment [7] was “Not Active” throughout.

On to `CC(=O)OCC(=O)[C@@]12OC(C)(C)O[C@@H]1C[C@H]1[C@@H]3C[C@H](F)C4=CC(=O)C=C[C@]4(C)[C@@]3(F)[C@@H](O)C[C@@]12C` [FLUOCINONIDE], for which the IC50 entry (in experiment [1]; in experiment [2]; in experiment [3]; in experiment [4]; on Vasopressin V1a receptor; in experiment [5]) was “Not Active” throughout. For the same compound, the IC50 entry in experiment [6] and in experiment [7] was “Not Active” throughout. The Ki result in experiment [3], in experiment [5] and in experiment [7] was “Not Active” throughout.

As for `O=C(O)P(=O)(O)O` [FOSCARNET], the IC50 result (in experiment [1]; in experiment [2]; in experiment [3]; in experiment [4]; on Vasopressin V1a receptor; in experiment [5]) was “Not Active” in each case. The IC50 result in experiment [6] and in experiment [7] was “Not Active” in each case. The Ki result in experiment [3], in experiment [5] and in experiment [7] was “Not Active” in each case.
